From US5726195A, “Aminoacyl adenylate mimics as novel antimicrobial and antiparasitic agents” (Cubist Pharmaceuticals, Inc., priority 1996, dated 1998) come the findings set out here.

One experiment relates to B. subtilis ATCC 6633. The experiment in a line: Whole cell antimicrobial screen, MIC. The experiment is classed as cell-based. The conditions noted are these: Bacillus subtilis, ATCC6633. In short, it runs like this:
(§1)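 Broth microdilution following NCCLS: two-fold dilutions (final 0.1–500 μg/mL, ≤1% DMSO) with 5×10^4 cells in 100 μL of appropriate medium, e.g. Mueller-Hinton broth. After overnight incubation at 30–37 °C, growth was read by optical density, and MIC is the lowest concentration inhibiting growth.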

In another experiment the test system is C. albicans ATCC 10231. The experiment in a line: Whole cell antimicrobial screen, MIC. The conditions noted are these: Candida albicans, ATCC10231. The experiment is classed as cell-based. In short, it runs like this: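 MIC = lowest compound concentration inhibiting growth, judged from optical density after overnight incubation at 30° C.-37° C. Inoculum was 5×10^4 cells per well in media such as Mueller-Hinton Broth, with twofold dilutions spanning 0.1 μg/mL-500 μg/mL.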

A further experiment relates to E. faecalis ATCC 33011. As to the kind of experiment: Whole cell antimicrobial screen, MIC. It counts as cell-based. The conditions noted are these: Enterococcus faecalis, ATCC33011. In a few lines: as §1
The next experiment concerns E. faecium ATCC 6569. The experiment in a line: Whole cell antimicrobial screen, MIC. The experiment is classed as cell-based. The conditions noted are these: Enterococcus faecium, ATCC6569. In a few lines: as §1
The next experiment relates to H. influenza ATCC 49247. As to the kind of experiment: Whole cell antimicrobial screen, MIC. The experiment is classed as cell-based. In short, it runs like this: as §1
For the next experiment, the system named is K. pneumonia ATCC 4352. The experiment in a line: Whole cell antimicrobial screen, MIC. The experiment is classed as cell-based. The conditions noted are these: Klebsiella pneumoniae, ATCC4352. In a few lines:
as §1

Experiment [1] relates to M. catarrhalis ATCC 25240. As to the kind of experiment: Whole cell antimicrobial screen, MIC. It counts as cell-based. The settings on record: Moraxella catarrhalis, ATCC25240. In short, it runs like this:
as §1

The subject of a further experiment is S. aureus ATCC 14154. The experiment in a line: Whole cell antimicrobial screen, MIC. The conditions noted are these: Staphylococcus aureus, ATCC14154. It counts as cell-based. In a few lines:
as §1

Another experiment concerns S. aureus ATCC 6538P. As to the kind of experiment: Whole cell antimicrobial screen, MIC. The conditions noted are these: Staphylococcus aureus, ATCC6538P. The experiment is classed as cell-based. In short, it runs like this:
as §1

Experiment [2] relates to S. epidermidis ATCC 33501. The experiment in a line: Whole cell antimicrobial screen, MIC. The conditions noted are these: Staphylococcus epidermidis, ATCC33501. It counts as cell-based. In short, it runs like this:
as §1

In a further experiment the test system is S. pneumonia ATCC 49619. As to the kind of experiment: Whole cell antimicrobial screen, MIC. The experiment is classed as cell-based. In short, it runs like this: as §1
The subject of a further experiment is S. pyogenes ATCC 8668. As to the kind of experiment: Whole cell antimicrobial screen, MIC. It counts as cell-based. The conditions noted are these: Streptococcus pyogenes, ATCC8668. In short, it runs like this: as §1
Experiment [3] concerns S. saprophyticus ATCC 35552. The experiment in a line: Whole cell antimicrobial screen, MIC. It counts as cell-based. The settings on record: Staphylococcus saprophyticus, ATCC35552. In short, it runs like this: as §1
Experiment [4] relates to Streptococcus pyogenes (ATCC 8668). As to the kind of experiment: Mouse protection test against wild type Streptococcus pyogenes. It counts as in vivo, Streptococcus pyogenes; female CD-1 mice. The conditions noted are these: for Protective % / Number of Alive: repeated at 4 hours, 7 days; for Number of Alive: of 5 mice. The text has this:
The mouse protection test is an industry standard for measuring the efficacy of a test compound in vivo [for examples of this model see J. J. Clement, et al., Antimicrobial Agents and Chemotherapy, 38 (5), 1071-1078, (1994)]. As exemplified below, this test was used to show the in vivo efficacy of the compounds of the present invention against bacteria.
The in vivo antibacterial activity of compound X was established by infecting female CD-1 mice (Charles River Lab, Massachusettes) weighing 20-24 g intraperitoneally with Streptococcus pyogenes inoculum. The inoculum was prepared from Streptococcus pyogenes (ATCC 8668) which was cultured in brain heart infusion broth (Baltimore Biological Laboratories,Maryland) at 37° C. for 18 hr, and then 0.1 ml of the overnight culture was diluted with the medium to 5.0 ml for reading its OD at 600 nm (0.017). The turbidity of a 0.5 McFarland standard is equivalent to OD600 0.1, or 10^8 cfu/ml. Then, 8×10^5 cfu of the bacteria (940 μl of 1:1000 overnight culture) was added to 20 ml of phosphate buffered saline (Sigma P-0261 ) containing 5% hog gastric mucin (Sigma M-2378). All animals were injected with 0.5 ml of the inoculum, equivalent to 2×10^4 cfu/mouse which is the dose causing ~100% death of the animals without treatment.
Compound X (50 mg) was dissolved in 5.0 ml of 0.05M Tris.HCl (pH 8.8) to give a solution of 10 mg/ml. This solution was serially diluted with 0.05 M Tris.HCl by 5-fold (1.0 ml to 5.0 ml) to give 2, 0.4 and 0.08 mg/ml solutions. The known antibiotic erythromycin (Sigma E-6376, in phosphate buffered saline, 1 mg/ml, pH 7.0) was used as a positive control. All the solutions were filtered with 0.2 μm Nalgene syringe filter. Immediately after the bacterial inoculation, group 1 animals were subcutaneously (sc) injected with 0.05M Tris.HCl (no antibiotic) and groups 2 to 5 were given compound X sc at 0.8, 4, 20, and 100 mg/kg, respectively. Group 6 animals received erythromycin sc at 10 mg/kg. These injections were repeated once at 4 hours after the inoculation for the respective groups. The injection volume at each time was 10 ml per kilogram of body weight. The 50% protective dose (PD50) is calculated on the basis of the number of mice surviving 7 days after inoculation.

The test system is the same in experiment [5]. The experiment is described as above. It counts as in vivo, Streptococcus pyogenes; female CD-1 mice. The conditions noted are these: 0.08 mg/kg sc, repeated at 4 hours, 7 days.

≈ marks a conversion by molar mass, not a printed value.

Consider `CC[C@H](C)[C@H](N)C(=O)NS(=O)(=O)OC[C@H]1O[C@@H](CCn2nnc(-c3ccc(Oc4ccccc4)cc3)n2)[C@H](O)[C@@H]1O` [Compound X, [S-(R*,R*)]-3,6-anhydro-1,2-dideoxy-1-[5-(4-phenoxyphenyl)-2H-tetrazol-2-yl]-D-allo-heptitol 7-(2-amino-3-methyl-1-oxopentyl)sulfamate], for which the MIC in the experiment with B. subtilis ATCC 6633 was 10 µg/mL (≈ 16.9 µM); in the experiment with C. albicans ATCC 10231, more than 500 µg/mL; in the experiment with E. faecalis ATCC 33011, 300 µg/mL (≈ 508 µM); with E. faecium ATCC 6569 it was 10 µg/mL (≈ 16.9 µM); with H. influenza ATCC 49247, 100 µg/mL (≈ 169 µM); with K. pneumonia ATCC 4352, 50 µg/mL (≈ 84.7 µM). Moreover, the MIC in experiment [1] is 25 µg/mL (≈ 42.3 µM); against S. aureus ATCC 14154, 25 µg/mL (≈ 42.3 µM); with S. aureus ATCC 6538P it was 10 µg/mL (≈ 16.9 µM); in experiment [2], 2 µg/mL (≈ 3.39 µM); with S. pneumonia ATCC 49619, 25 µg/mL (≈ 42.3 µM); in the experiment with S. pyogenes ATCC 8668, 0.5 µg/mL (≈ 0.847 µM). The same compound displayed an MIC in experiment [3] of 5 µg/mL (≈ 8.47 µM). The Protective % stood at 0% in experiment [4] (4 mg/kg sc), 40% in experiment [4] (20 mg/kg sc), 100% in experiment [4] (100 mg/kg sc) and 0% in [5]. Moreover, the “Number of Alive” value in experiment [4] (4 mg/kg sc) worked out at 0; in experiment [4] (20 mg/kg sc), 2; in experiment [4] (100 mg/kg sc), 5; in [5] (of 5 mice) it was 0. Moreover, the ED50 in experiment [4] (Streptococcus pyogenes, ATCC8668, 168 h, sc, mice surviving 7 days after inoculation, wild type, read-out: PD50 (50% protective dose)) amounted to 21.1 mg/kg.
